Data as given in US6884600B1, “Protein phosphatase-1 catalytic subunit interactions” (Medical Research Council London, priority 1996, dated 2005).
“Also recorded” adds a separate entry of the source.

Columns and labels:
PP1M [1] = target: T1, PP1M (Gallus gallus, UniProt P62207); test: Phosphorylase phosphatase activity of PP1M; format: biochemical, chicken
T1 construct: from tissue; host or cells: chicken gizzard smooth muscle
Protocol: (§1) (A) The phosphorylase phosphatase (PhP) activity of PP1M (closed circles) and its MLC20 phosphatase (MLCP) activity (open circles) were assayed after preincubation for 15 minutes at 30° C. with the indicated concentrations of GM-(G63-T93). Activities are shown relative to control incubations in which GM-(G63-T93) was omitted. Similar results were obtained in three experiments.
(§2) (A) PP1M from chicken gizzard smooth muscle (Alessi et al., 1992) was diluted and incubated for 15 min at 30° C. with the peptide […] (SEQ ID No 4), corresponding to the sequence in p53BP2 that contains the RVXF motif. Reactions were started with either ^32P-labelled MLC20 or glycogen phosphorylase and the MLC20 phosphatase (open circles) and phosphorylase phosphatase (PhP, closed circles) activities were determined. The results are expressed as a percentage of the activity determined in control incubations where the p53BP2 peptide was omitted (100%). Similar results were obtained in three separate experiments. (B) same as (A) except that the peptide was incubated with diluted hepatic glycogen particles containing PP1-GL before measuring the PhP activity. Similar results were obtained in three separate experiments.
(§3) The myosin-associated form of PP1 (PP1M) was from chicken gizzard and the glycogen-associated form of PP1 (PP1G) from rabbit skeletal muscle. […]

PP1GL [2] = test: Phosphorylase phosphatase activity of PP1GL (hepatic glycogen particles); format: biochemical, rat
Protocol: Hepatic glycogen particles were diluted in assay buffer to 0.6 phosphorylase phosphatase (PhP) mU per ml, incubated for 15 minutes at 30° C. with GM-(G63-T93) (closed circles), GM-(G63-K80) (open circles) or GM-(G63-N75) (closed triangles) and assayed as described in Example 1. The open triangles show the effect of GM-(G63-N75) which had been phosphorylated at Ser67 by PKA (pGM-(G63-N75)). Similar results were obtained in four experiments.
(A) Hepatic glycogen protein particles containing PP1-GL were diluted and incubated for 15 min at 30° C. with the indicated concentrations of either M110[M1-F38] (open circles) or M110[M1-K35] (closed circles) and the phosphatase reactions were initiated by addition of ^32P-labelled glycogen phosphorylase. The results are expressed as a percentage of the activity determined in control incubations where the M110 peptides were omitted. Similar results were obtained in three separate experiments. (B) The experiment was carried out as in (A), except that the peptide GM[G63-N75] (“wild type”, WT) and variants in which either Val 66 (V66A) (closed triangles) or Phe 68 (F68A) (closed circles) were changed to Ala, were used instead of the M110 peptides. Similar results were obtained in three separate experiments.
(§4) The myosin-associated form of PP1 (PP1M) was from chicken gizzard and the glycogen-associated form of PP1 (PP1G) from rabbit skeletal muscle. The β isoform of PP1c was released from PP1G by incubation for 2 hours in 2M LiBr, then purified by gel-filtration on a 30×1 cm column of Superose 12 (Pharmacia, Milton Keynes, U.K.) in the presence of 0.5M LiBr. Glycogen protein particles from rat liver were used as the source of hepatic PP1G Digoxygenin-labelled PP1c (γ1-isoform, hereafter termed PP1) was prepared as in [9]. GL was expressed in E. coli as a glutathione-S-transferase (GST) fusion protein [7], termed GST-GL. The catalytic subunit of PP2A from bovine heart (PP2AC) was provided by Dr R. MacKintosh in this Unit. The phosphorylatable myosin light chain (MLC20) and heavy meromyosin from chicken gizzard were a gift from Dr M. Ikebe (Case Western Reserve University, Cleveland, USA). Thrombin and benzamidine-Agarose were purchased from Sigma (Poole, UK).
(§5) ^32P-labelled rabbit skeletal muscle phosphorylase a (containing 1.0 mol phosphate per mol subunit) was prepared by phosphorylation with phosphorylase kinase, ^32P-labelled rabbit skeletal muscle glycogen synthase (containing 1.5 mol/mol subunit in the sites 3 region) was prepared by phosphorylation with glycogen synthase kinase-3 [24]). ^32P-labelled chicken gizzard MLC20 and ^32P-labelled chicken gizzard heavy meromyosin (containing 1.0 mol phosphate per mol subunit) were prepared by phosphorylation with smooth muscle myosin light chain kinase. The dephosphorylation of phosphorylase a (10 μM), glycogen synthase (1 μM) and MLC20 (1 μM) and heavy meromyosin (1 μM) was carried out as in [24]. One unit of activity (U) was that amount which released […] of phosphate in one minute.
(§6) PP1c was isolated from the rabbit skeletal muscle PP1-GM complex as described previously (Johnson et al, 1996). Glycogen particles isolated from rat liver (Schelling el al, 1988) served as the source of PP1-GL. The dephosphorylation of glycogen phosphorylase (10 μM) and the isolated MLC20 of smooth muscle myosin (1 μM) by PP1c was carried out as described previously (Cohen et al., 1988; Alessi et al., 1992).

cultured cells = test: Effect of p53BP2 peptide introduced into cultured cells (cell cycle, apoptosis; WAF1 ELISA, Nuclear Matrix Protein ELISA); format: cell-based; conditions: Example 5, present tense, no data
Excerpt: The function of p53BP2 is ascertained by examining the in vivo effect of peptides based on the sequence of the p53BP2 binding site to PP1. This may be done by reference to the consensus peptide sequence described in the previous Examples and by reference to the crystal structure in Example 2. The peptide is introduced into cultured cells using penetratin available from Appligene. Other importins may also be used. Alternatively cDNA specifying p53BP2 proteins mutant in the p53BP2 binding site to PP1 are transfected in cultured cells. The effect of these agents on the cell cycle and apoptosis are assessed by a number of methods, for example WAF1 ELISA and Nuclear Matrix Protein ELISA assays (Amersham).

PP1M [3] = target: T1, PP1M; test: MLC20 phosphatase activity of PP1M; format: biochemical, chicken
Protocol: as §1, §2, §3

PP1M [4] = target: T1, PP1M; test: Gel filtration of PP1M on Superose 12 with or without GM-(G63-T93); format: binding, chicken
Protocol: (B,C) PPIM was incubated for 15 minutes at 30° C. in the absence (B) and presence (C) of […] GM-(G63-T93), then passed through a 30×1 cm column of Superose 12 equilibrated at ambient temperature in 50 mM Tris/HCl pH 7.5, 0.2M NaCl, 0.1 mM EGTA, 0.1% (by vol) 2-mercaptoethanol, 0.03% (by mass) Brij 35 in the absence (B) or presence (C) of 1 μM GM-(G63-T93). Fractions (0.25 ml) were assayed for MLC20 phosphatase (MLCP) in B and for phosphorylase phosphatase (PhP) activity in C. The arrows denote the position of ferritin (450 kDa) and ovalbumin (43 kDa).

PP1GL [5] = test: Glycogen synthase phosphatase activity of PP1GL; format: biochemical, rat
Protocol: as §4, with “UK). […]” for “UK).”

PP1c [6] = target: T2, PP1c (Oryctolagus cuniculus, UniProt P62143); test: Phosphorylase phosphatase activity of PP1c; format: biochemical, rabbit
T2 construct: from tissue; host or cells: rabbit skeletal muscle (PP1G dissociated with LiBr)
T2 sequence (P62143 whole entry): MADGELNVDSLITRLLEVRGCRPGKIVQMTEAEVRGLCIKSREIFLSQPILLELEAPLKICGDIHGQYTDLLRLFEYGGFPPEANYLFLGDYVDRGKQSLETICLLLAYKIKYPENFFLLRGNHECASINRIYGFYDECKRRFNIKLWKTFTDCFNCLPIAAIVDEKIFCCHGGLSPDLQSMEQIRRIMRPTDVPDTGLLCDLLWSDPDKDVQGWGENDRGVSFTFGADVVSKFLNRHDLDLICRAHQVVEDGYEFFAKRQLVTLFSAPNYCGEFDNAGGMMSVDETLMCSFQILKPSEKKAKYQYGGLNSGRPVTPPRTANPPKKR
Protocol: (§7) A,B; Effects of M110-(M1-E309) (closed circles), M110-(M1-F38) (open circles) and M110-(D39-E309) (open triangles) on the MLC20 phosphatase […] and phosphorylase phosphatase (B) activities of PP1c were measured after incubating PP1c for 15 minutes at 30° C. with each fragment. The results are presented as a percentage of those obtained in experiments where the M110 fragments were omitted.
(§8) C,D; The effect of M110-(M1-A150) (open circles) and M110-(L24-Y496) (closed circles) on the MLC20 phosphatase (C) and phosphorylase phosphatase (D) activities of PP1c were measured as in A,B.
(B) The phosphorylase phosphatase activity of PP1c was assayed as in A in the presence or absence of 1 μM GM-(G63-T93) and 1.0 nM M110-(M1-E309). The results are presented (SEM for three experiments) as a percentage of the PP1c activity measured in the absence of GM-(63-T93), M110-(M1-F38) or M110-(M1-E309).
as §4, §5, §6

PP1c [7] = target: T2, PP1c; test: MLC20 (myosin P-light chain) phosphatase activity of PP1c; format: biochemical
Protocol: as §7, §8
(A) The MLC20 phosphatase activity of PP1c was assayed after incubation for 15 minutes at 30° C. in the presence or absence of 1 μM GM-(G63-T93) and either 0.1 μM M110-(M1-F38) or 0.1 nM M110-(M1-E309).
(1-38, open circles) or M110[M1-K35] (1-35, closed circles) were incubated with PP1c for 15 min at 30° C. and reactions started with the ^32P-labelled MLC20 substrate. The results are expressed as a % of the activity determined in control incubations where the M110 peptides were omitted (100%). Similar results were obtained in three separate experiments.
as §4, §5, §6
^32P-labelled myosin P-light chains containing 1.0 mol phosphate per mol subunit was prepared by phosphorylation with smooth muscle myosin light chain kinase. The dephosphorylation of myosin P-light chain (1 μM) was carried out as in [4] and one unit of activity (U) was that amount which catalysed the release of 1 μmole of phosphate in one min. When assaying PP1M in immunoprecipitates from the myofibrillar extracts, the tubes were shaken continuously and 3 nM okadaic acid was included to inhibit any PP2A present.

T1 sequence (P62207 whole entry): as the sequence (P62143 whole entry) above

Sequence | effect on the phosphorylase phosphatase activity of PP1M (PP1M [1]) | effect on the phosphorylase phosphatase activity of PP1GL (PP1GL [2]; hepatic glycogen particles containing PP1-GL) | effect of the peptide in cultured cells (cultured cells) | effect on the MLC20 phosphatase activity of PP1M (PP1M [3]) | dissociation of PP1M in gel-filtration experiments (PP1M [4]) | increase in the phosphorylase phosphatase activity of PP1M (PP1M [1]; 10 μM peptide) | effect on the glycogen synthase phosphatase activity of PP1GL (PP1GL [5]) | displacement of GL from PP1c (PP1GL [2]) | increase in the phosphorylase phosphatase activity of PP1GL (PP1GL [2]; hepatic glycogen particles, 15 min 30° C.) | EC50 (PP1GL [2]; hepatic glycogen particles, 15 min 30° C., read-out: concentration required for 50% activation of the phosphorylase phosphatase activity of PP1GL) | prevention of suppression of the phosphorylase phosphatase activity of PP1c by a regulatory subunit or fragment (PP1c [6]) | maximal stimulation of the phosphorylase phosphatase activity of PP1c (PP1c [6]; SEM for three experiments) | prevention of stimulation of the MLC20 phosphatase activity of PP1c by M110 fragments (PP1c [7]) | suppression of the MLC20 phosphatase activity of PP1M (PP1M [3]; 10 μM peptide)
GKRTNLRKTGSERIAHGMRVKFNPLALLLDSC [32 residue peptide from p53BP2] | increase in the rate of dephosphorylation of glycogen phosphorylase | increase in the rate of dephosphorylation of glycogen phosphorylase | modulate the interaction between PP1 and p53BP2 in vivo and affect cell regulation and apoptosis | decrease in the rate of dephosphorylation of the MLC20 subunit of smooth muscle myosin |  |  |  |  |  |  |  |  |  | 
GRRVSFADNFGFNLVSVKEFDTWELPSVSTT [GM-(G63-T93), synthetic peptide, residues 63-93 of rabbit GM] |  |  |  |  | displaced the M110 subunit from PP1M | about 7 fold | no effect | does not displace GL from PP1c | sixfold | 30 nM | prevented bacterially expressed GST-GL from suppressing the phosphorylase phosphatase activity of PP1c; also recorded: prevented M110-(M1-E309) from suppressing the phosphorylase phosphatase activity of PP1c | 37+1.4% | prevented M110-(M1-F38) or M110-(M1-E309) from stimulating the MLC20 phosphatase activity of PP1c | 60-65%
